Target: T1, recombinant human GR (Homo sapiens, UniProt P04150)
T1 construct: purchased Panvera/Invitrogen P2812 (kit P2893)
T1 sequence (P04150 1-777): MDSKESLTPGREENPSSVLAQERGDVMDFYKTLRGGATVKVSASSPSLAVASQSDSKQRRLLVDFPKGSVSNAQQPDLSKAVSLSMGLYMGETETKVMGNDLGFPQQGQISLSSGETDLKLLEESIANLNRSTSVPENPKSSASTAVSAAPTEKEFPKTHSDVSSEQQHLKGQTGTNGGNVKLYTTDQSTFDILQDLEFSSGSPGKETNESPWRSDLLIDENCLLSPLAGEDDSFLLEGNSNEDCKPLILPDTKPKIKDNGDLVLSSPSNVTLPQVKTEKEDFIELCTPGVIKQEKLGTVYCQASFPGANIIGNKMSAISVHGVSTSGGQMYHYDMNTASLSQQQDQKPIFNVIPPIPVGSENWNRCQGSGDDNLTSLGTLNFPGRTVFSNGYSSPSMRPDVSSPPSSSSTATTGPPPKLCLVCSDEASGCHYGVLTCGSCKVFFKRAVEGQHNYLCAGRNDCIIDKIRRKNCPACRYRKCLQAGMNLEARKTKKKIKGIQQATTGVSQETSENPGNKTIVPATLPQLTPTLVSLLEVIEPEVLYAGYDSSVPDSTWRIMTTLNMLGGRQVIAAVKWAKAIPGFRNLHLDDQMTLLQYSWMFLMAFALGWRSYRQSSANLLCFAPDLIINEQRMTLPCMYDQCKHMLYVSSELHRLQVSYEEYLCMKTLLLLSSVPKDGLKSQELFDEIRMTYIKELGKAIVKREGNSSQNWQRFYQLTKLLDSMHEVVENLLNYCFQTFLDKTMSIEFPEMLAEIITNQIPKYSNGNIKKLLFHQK
Experiment: Human Glucocorticoid Receptor (GR) Assay (fluorescence polarization, Panvera/Invitrogen kit)
Conditions: GS Red tracer, 2 hours at room temperature, 100% control 10 μM Dexamethasone, read-out: Inhibition of GR binding, IC50
Method: Human Glucocorticoid Receptor (GR) Assay The assay is based on a commercial kit from Panvera/Invitrogen (Part number P2893). The assay technology is fluorescence polarization. The kit utilises recombinant human GR (Panvera, Part number P2812), a Fluoromone™ labelled tracer (GS Red, Panvera, Part number P2894) and a Stabilizing Peptide 10× (Panvera, Part number P2815). The GR and Stabilizing Peptide reagents are stored at −70° C. while the GS Red is stored at −20° C. Also included in the kit are 1M DTT (Panvera, Part number P2325, stored at −20° C.) and GR Screening buffer 10× (Panvera, Part number P2814, stored at −70° C. initially but once thawed stored at room temperature). Avoid repeated freeze/thaws for all reagents. The GR Screening buffer 10× comprises 100 mM potassium phosphate, 200 mM sodium molybdate, 1 mM EDTA and 20% DMSO. Test compounds (1 μL) and controls (1 μL) in 100% DMSO were added to black polystyrene 384-well plates (Greiner low volume black flat-bottom, part number 784076). 0% control was 100% DMSO and 100% control was 10 μM Dexamethasone. Background solution (8 μL; assay buffer 10×, Stabilizing Peptide, DTT and ice cold MQ water) was added to the background wells. GS Red solution (7 μL; assay buffer 10×, Stabilizing Peptide, DTT, GS Red and ice cold water) was added to all wells except background wells. GR solution (7 μL; assay buffer 10×, Stabilizing Peptide, DTT, GR and ice cold water) was added to all wells. The plate was sealed and incubated in a dark at room temperature for 2 hours. The plate was read in an Analyst plate reader (LJL Biosystems/Molecular Devices Corporation) or other similar plate reader capable of recording fluorescence polarization (excitation wavelength 530 nm, emission wavelength 590 nm and a dichroic mirror at 561 nm).

Row | Structure (SMILES) | IC50
1 | CCC[C@H]1O[C@@H]2C[C@H]3[C@@H]4CCC5=Cc6c(cnn6-c6ccc(F)c(CN7CCN(C)CC7)c6)C[C@]5(C)[C@H]4[C@@H](O)C[C@]3(C)[C@]2(C(=O)CO)O1 [Example 5, 1-[(4aR,4bS,5S,6aS,6bS, 8S,9aR,10aS,10bS)-1-{4-fluoro-3-[(4-methylpiperazin-1-yl)methyl]phenyl}-5-hydroxy-4a,6a-dimethyl-8-propyl-4,4a,4b,5,6,6a,9a,10, 10a,10b,11,12-dodecahydro[1,3]dioxolo [3′,4′]cyclopenta [1′,2′:5,6]naphtho[1,2-f]indazol-6b(1H)-yl]-2-hydroxyethanone trifluoroacetic acid] | 77 nM
2 | CCC[C@@H]1O[C@@H]2C[C@H]3[C@@H]4CCC5=Cc6c(cnn6-c6ccc(F)c(CN7CCC(CO)CC7)c6)C[C@]5(C)[C@H]4[C@@H](O)C[C@]3(C)[C@]2(C(=O)CO)O1 [Example 13, 1-[(4aR,4bS,5S,6aS,6bS, 8R,9aR,10aS,10bS)-1-(4-fluoro-3-{[4-(hydroxymethyl)piperidin-1-yl]methyl}phenyl)-5-hydroxy-4a,6a-dimethyl-8-propyl-4,4a,4b,5,6,6a,9a,10, 10a,10b,11,12-dodecahydro[1,3]dioxolo [3′,4′]cyclopenta [1′,2′:5,6]naphtho[1,2-f]indazol-6b(1H)-yl]-2-hydroxyethanone trifluoroacetic acid] | 32 nM
3 | CCC[C@@H]1OC2C[C@H]3[C@@H]4CCC5=Cc6c(cnn6-c6ccc(F)c(CN(CC)CC)c6)C[C@]5(C)[C@H]4[C@@H](O)C[C@]3(C)[C@]2(C(=O)CO)O1 (stereo partly drawn) [Example 6, 1-[(4aR,4bS,5S,6aS,6bS, 8R,9aR,10aS,10bS)-1-{3-[(diethylamino)methyl]-4-fluorophenyl}-5-hydroxy-4a,6a-dimethyl-8-propyl-4,4a,4b,5,6,6a,9a,10, 10a,10b,11,12-dodecahydro[1,3]dioxolo [3′,4′]cyclopenta [1′,2′:5,6]naphtho[1,2-f]indazol-6b(1H)-yl]-2-hydroxyethanone] | 72 nM
4 | CCC[C@H]1O[C@@H]2C[C@H]3[C@@H]4CCC5=Cc6c(cnn6-c6ccc(F)c(CN7CCSCC7)c6)C[C@]5(C)[C@H]4[C@@H](O)C[C@]3(C)[C@]2(C(=O)CO)O1 [Example 8, 1-[(4aR,4bS,5S,6aS,6bS, 8S,9aR,10aS,10bS)-1-[4-fluoro-3-(thiomorpholin-4-ylmethyl)phenyl]-5-hydroxy-4a,6a-dimethyl-8-propyl-4,4a,4b,5,6,6a,9a,10, 10a,10b,11,12-dodecahydro[1,3]dioxolo [3′,4′]cyclopenta [1′,2′:5,6]naphtho[1,2-f]indazol-6b(1H)-yl]-2-hydroxyethanone trifluoroacetic acid] | 16 nM
5 | CCC[C@H]1O[C@@H]2C[C@H]3[C@@H]4CCC5=Cc6c(cnn6-c6ccc(F)c(CNCCCO)c6)C[C@]5(C)[C@H]4[C@@H](O)C[C@]3(C)[C@]2(C(=O)CO)O1 [Example 12, 1-[(4aR,4bS,5S,6aS,6bS, 8S,9aR,10aS,10bS)-1-(4-fluoro-3-{[(3-hydroxypropyl)amino]methyl}phenyl)-5-hydroxy-4a,6a-dimethyl-8-propyl-4,4a,4b,5,6,6a,9a,10, 10a,10b,11,12-dodecahydro[1,3]dioxolo [3′,4′]cyclopenta [1′,2′:5,6]naphtho[1,2-f]indazol-6b(1H)-yl]-2-hydroxyethanone trifluoroacetic acid] | 76 nM
6 | CCC[C@H]1O[C@@H]2C[C@H]3[C@@H]4CCC5=Cc6c(cnn6-c6ccc(F)c(CN7CCC(O)CC7)c6)C[C@]5(C)[C@H]4[C@@H](O)C[C@]3(C)[C@]2(C(=O)CO)O1 [Example 10, 1-[(4aR,4bS,5S,6aS,6bS, 8S,9aR,10aS,10bS)-1-{4-fluoro-3-[(4-hydroxypiperidin-1-yl)methyl]phenyl}-5-hydroxy-4a,6a-dimethyl-8-propyl-4,4a,4b,5,6,6a,9a,10, 10a,10b,11,12-dodecahydro[1,3]dioxolo [3′,4′]cyclopenta [1′,2′:5,6]naphtho[1,2-f]indazol-6b(1H)-yl]-2-hydroxyethanone trifluoroacetic acid] | 67 nM

Now those with a lower IC50, led by results:

Row | IC50 | Structure (SMILES)
7 | 8.7 nM | CCC[C@H]1O[C@@H]2C[C@H]3[C@@H]4CCC5=Cc6c(cnn6-c6ccc(F)c(CN7CCOCC7)c6)C[C@]5(C)[C@H]4[C@@H](O)C[C@]3(C)[C@]2(C(=O)CO)O1 [Example 2]
8 | 12 nM | CCC[C@@H]1O[C@@H]2C[C@H]3[C@@H]4CCC5=Cc6c(cnn6-c6ccc(F)cc6)C[C@]5(C)[C@H]4[C@@H](O)C[C@]3(C)[C@]2(C(=O)SCC#N)O1 [Example 25, (4aR,4bS,5S,6aS,6bS,8R,9aR,10aS,10bS)-6b-(cyanomethylthiocarbonyl)-1-(4-fluorophenyl)-5-hydroxy-4a,6a-dimethyl-8-propyl-4,4a,4b,5,6,6a,9a,10,10a,10b,11,12-dodecahydro[1,3]dioxolo[3′,4′]cyclopenta[1′,2′:5,6]naphtho[1,2-f]indazol]
9 | 5.9 nM | CCC[C@H]1O[C@@H]2C[C@H]3[C@@H]4CCC5=Cc6c(cnn6-c6ccc(F)c(C(=O)OC)c6)C[C@]5(C)[C@H]4[C@@H](O)C[C@]3(C)[C@]2(C(=O)CO)O1 [Example 23, Methyl 2-fluoro-5-[(4aR,4bS,5S,6aS,6bS,8S,9aR,10aS,10bS)-6b-glycoloyl-5-hydroxy-4a,6a-dimethyl-8-propyl-4a,4b,5,6,6a,6b,9a,10,10a,10b,11,12-dodecahydro[1,3]dioxolo[3′,4′]cyclopenta[1′,2′:5,6]naphtho[1,2-f]indazol-1(4H)-yl]benzoate]
10 | 12 nM | CCC[C@@H]1O[C@@H]2C[C@H]3[C@@H]4CCC5=Cc6c(cnn6-c6ccc(F)c(CN7CCSCC7)c6)C[C@]5(C)[C@H]4[C@@H](O)C[C@]3(C)[C@]2(C(=O)CO)O1 [Example 7, 1-[(4aR,4bS,5S,6aS,6bS, 8R,9aR,10aS,10bS)-1-[4-fluoro-3-(thiomorpholin-4-ylmethyl)phenyl]-5-hydroxy-4a,6a-dimethyl-8-propyl-4,4a,4b,5,6,6a,9a,10, 10a,10b,11,12-dodecahydro[1,3]dioxolo [3′,4′]cyclopenta [1′,2′:5,6]naphtho[1,2-f]indazol-6b(1H)-yl]-2-hydroxyethanone trifluoroacetic acid]
11 | 3.1 nM | CCC[C@@H]1O[C@@H]2C[C@H]3[C@@H]4CCC5=Cc6c(cnn6-c6ccc(F)c(CO)c6)C[C@]5(C)[C@H]4[C@@H](O)C[C@]3(C)[C@]2(C(=O)CO)O1 [Example 16, 1-[(4aR,4bS,5S,6aS,6bS,8R,9aR,10aS,10bS)-1-[4-Fluoro-3-(hydroxymethyl)phenyl]-5-hydroxy-4a,6a-dimethyl-8-propyl-4,4a,4b,5,6,6a,9a,10,10a,10b,11,12-dodecahydro[1,3]dioxolo[3′,4′]cyclopenta[1′,2′:5,6]naphtho[1,2-f]indazol-6b(1H)-yl]-2-hydroxyethanone]
12 | 5.5 nM | CC1(C)O[C@@H]2C[C@H]3[C@@H]4CCC5=Cc6c(cnn6-c6ccc(F)c(CO)c6)C[C@]5(C)[C@H]4[C@@H](O)C[C@]3(C)[C@]2(C(=O)CO)O1 [Example 21, 1-[(4aR,4bS,5S,6aS,6bS,9aR,10aS,10bS)-1-[4-Fluoro-3-(hydroxymethyl)phenyl]-5-hydroxy-4a,6a,8,8-tetramethyl-4,4a,4b,5,6,6a,9a,10,10a,10b,11,12-dodecahydro[1,3]dioxolo[3′,4′]cyclopenta[1′,2′:5,6]naphtho[1,2-f]indazol-6b(1H)-yl]-2-hydroxyethanone]

Reference: US20110160167A1, “Steroid Derivatives Acting As Glucocorticosteroid Receptor Agonists” (AstraZeneca AB, priority 2007, published 2011)
